Assay results from patent US11945813B2, “5-substituted 4-amino-1H-benzo[c][1,2,6]thiadiazine 2,2-dioxides and formulations and uses thereof” (Firmenich Incorporated, priority 2018, dated 2024).

Target: T1, T1R2/T1R3 taste receptor (Homo sapiens, UniProt Q8TE23)
T1 sequence (Q8TE23 20-839): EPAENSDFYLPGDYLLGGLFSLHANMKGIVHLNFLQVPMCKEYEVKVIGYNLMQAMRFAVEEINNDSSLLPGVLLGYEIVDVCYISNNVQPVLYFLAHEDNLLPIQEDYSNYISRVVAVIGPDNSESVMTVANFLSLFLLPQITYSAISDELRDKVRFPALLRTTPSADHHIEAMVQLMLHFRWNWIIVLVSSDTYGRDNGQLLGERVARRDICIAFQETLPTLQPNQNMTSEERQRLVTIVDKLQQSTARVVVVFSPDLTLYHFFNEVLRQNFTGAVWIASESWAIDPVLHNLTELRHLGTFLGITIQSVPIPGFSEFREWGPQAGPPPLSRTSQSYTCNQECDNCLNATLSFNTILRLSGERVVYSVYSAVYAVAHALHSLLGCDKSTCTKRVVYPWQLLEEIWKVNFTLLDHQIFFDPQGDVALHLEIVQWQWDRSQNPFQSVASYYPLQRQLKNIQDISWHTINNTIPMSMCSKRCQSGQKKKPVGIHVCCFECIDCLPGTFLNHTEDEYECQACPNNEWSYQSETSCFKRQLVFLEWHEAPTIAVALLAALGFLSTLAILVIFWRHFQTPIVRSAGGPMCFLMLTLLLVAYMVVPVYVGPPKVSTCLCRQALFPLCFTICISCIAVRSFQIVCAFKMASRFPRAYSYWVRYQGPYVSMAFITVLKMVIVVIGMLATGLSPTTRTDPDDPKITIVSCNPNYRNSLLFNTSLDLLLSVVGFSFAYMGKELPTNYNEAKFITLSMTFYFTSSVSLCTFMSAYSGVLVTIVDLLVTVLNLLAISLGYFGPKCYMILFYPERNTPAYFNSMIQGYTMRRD
T1 sequence (Q7RTX0 21-852 partner): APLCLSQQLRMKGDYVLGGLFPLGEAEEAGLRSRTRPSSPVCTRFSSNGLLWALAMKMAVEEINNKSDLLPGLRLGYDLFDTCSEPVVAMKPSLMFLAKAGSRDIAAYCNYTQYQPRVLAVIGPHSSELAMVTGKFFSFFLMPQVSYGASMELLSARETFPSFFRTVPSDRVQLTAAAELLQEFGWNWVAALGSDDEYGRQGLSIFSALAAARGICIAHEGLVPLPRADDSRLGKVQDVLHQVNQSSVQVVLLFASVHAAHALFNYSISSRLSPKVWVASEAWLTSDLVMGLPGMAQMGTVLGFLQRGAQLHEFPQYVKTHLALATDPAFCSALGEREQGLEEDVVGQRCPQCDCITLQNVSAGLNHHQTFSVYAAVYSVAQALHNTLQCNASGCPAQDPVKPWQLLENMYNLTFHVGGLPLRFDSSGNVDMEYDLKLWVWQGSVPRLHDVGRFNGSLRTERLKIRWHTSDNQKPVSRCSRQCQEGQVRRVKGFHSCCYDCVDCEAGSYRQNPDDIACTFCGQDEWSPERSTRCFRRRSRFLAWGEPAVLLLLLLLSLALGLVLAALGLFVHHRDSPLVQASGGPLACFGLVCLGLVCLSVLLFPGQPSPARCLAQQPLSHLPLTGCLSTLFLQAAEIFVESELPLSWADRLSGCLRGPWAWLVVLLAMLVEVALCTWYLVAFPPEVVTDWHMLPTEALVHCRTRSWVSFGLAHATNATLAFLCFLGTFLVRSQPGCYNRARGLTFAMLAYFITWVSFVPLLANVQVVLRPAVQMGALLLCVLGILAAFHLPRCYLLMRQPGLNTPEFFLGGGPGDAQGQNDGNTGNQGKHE
Assay: Receptor-based assay: sweetener EC50 alone and with test compound (enhancement ratio)
Assay type: cell-based
Details: for Fructose Enhancement EC50 Ratio: sweetener fructose; for Sucralose Enhancement EC50 Ratio: sweetener sucralose; for Sucrose Enhancement EC50 Ratio: sweetener sucrose
In short: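 Sucrose, sucralose or fructose EC50 measured on human T1R2/T1R3, alone and with 3, 10 or 50 μM test compound. Enhancement is the EC50 ratio without/with compound, binned A >20, B 10-20, C >1 to <10.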

Row | Structure (SMILES) | Fructose Enhancement EC50 Ratio (50 μM test compound) | Sucralose Enhancement EC50 Ratio (10 μM test compound) | Sucralose Enhancement EC50 Ratio (50 μM test compound) | Sucrose Enhancement EC50 Ratio (3 μM test compound) | Sucrose Enhancement EC50 Ratio (10 μM test compound) | Sucrose Enhancement EC50 Ratio (50 μM test compound) | Fructose Enhancement EC50 Ratio (10 μM test compound)
1 | NC1=NS(=O)(=O)Nc2cccc(OC[C@H]3CCCN(c4cccc(C(=O)N5CCCCC5)n4)C3)c21 [Compound 413] | C (A “C” value indicates an enhancement ratio greater than 1 and less than 10) | B (A “B” value indicates an enhancement ratio from 10 to 20) | A (An “A” value indicates an enhancement ratio of greater than 20) | C (A “C” value indicates an enhancement ratio greater than 1 and less than 10) | C (A “C” value indicates an enhancement ratio greater than 1 and less than 10) | C (A “C” value indicates an enhancement ratio greater than 1 and less than 10) | 
2 | NC1=NS(=O)(=O)Nc2cccc(OC[C@H]3CCCN(c4cccc(C(=O)N5CCOCC5)n4)C3)c21 [Compound 414] | C (A “C” value indicates an enhancement ratio greater than 1 and less than 10) | A (An “A” value indicates an enhancement ratio of greater than 20) |  | C (A “C” value indicates an enhancement ratio greater than 1 and less than 10) | C (A “C” value indicates an enhancement ratio greater than 1 and less than 10) | B (A “B” value indicates an enhancement ratio from 10 to 20) | C (A “C” value indicates an enhancement ratio greater than 1 and less than 10)
3 | CN1CCN(C(=O)c2cccc(N3CCC[C@H](COc4cccc5c4C(N)=NS(=O)(=O)N5)C3)n2)CC1 [Compound 415] | C (A “C” value indicates an enhancement ratio greater than 1 and less than 10) |  | A (An “A” value indicates an enhancement ratio of greater than 20) | C (A “C” value indicates an enhancement ratio greater than 1 and less than 10) | C (A “C” value indicates an enhancement ratio greater than 1 and less than 10) | C (A “C” value indicates an enhancement ratio greater than 1 and less than 10) | C (A “C” value indicates an enhancement ratio greater than 1 and less than 10)
4 | CC(C)CNC(=O)c1cccc(N2CCC[C@H](COc3cccc4c3C(N)=NS(=O)(=O)N4)C2)n1 [Compound 416] | C (A “C” value indicates an enhancement ratio greater than 1 and less than 10) | A (An “A” value indicates an enhancement ratio of greater than 20) | A (An “A” value indicates an enhancement ratio of greater than 20) | C (A “C” value indicates an enhancement ratio greater than 1 and less than 10) | C (A “C” value indicates an enhancement ratio greater than 1 and less than 10) | B (A “B” value indicates an enhancement ratio from 10 to 20) | 
5 | NC1=NS(=O)(=O)Nc2cccc(OC[C@H]3CCCN(c4cccc(C(=O)NCC5CC5)n4)C3)c21 [Compound 417] | C (A “C” value indicates an enhancement ratio greater than 1 and less than 10) | A (An “A” value indicates an enhancement ratio of greater than 20) | A (An “A” value indicates an enhancement ratio of greater than 20) | C (A “C” value indicates an enhancement ratio greater than 1 and less than 10) | C (A “C” value indicates an enhancement ratio greater than 1 and less than 10) | C (A “C” value indicates an enhancement ratio greater than 1 and less than 10) | 
6 | NC1=NS(=O)(=O)Nc2cccc(OC[C@H]3CCCN(c4cccc(C(=O)NCC5CCCCC5)n4)C3)c21 [Compound 418] |  | B (A “B” value indicates an enhancement ratio from 10 to 20) | A (An “A” value indicates an enhancement ratio of greater than 20) | C (A “C” value indicates an enhancement ratio greater than 1 and less than 10) | C (A “C” value indicates an enhancement ratio greater than 1 and less than 10) | C (A “C” value indicates an enhancement ratio greater than 1 and less than 10) | 
7 | CNC(=O)c1ccc(N2CCC[C@H](COc3cccc4c3C(N)=NS(=O)(=O)N4)C2)nc1 [Compound 500] |  | A (An “A” value indicates an enhancement ratio of greater than 20) | A (An “A” value indicates an enhancement ratio of greater than 20) | C (A “C” value indicates an enhancement ratio greater than 1 and less than 10) | C (A “C” value indicates an enhancement ratio greater than 1 and less than 10) | C (A “C” value indicates an enhancement ratio greater than 1 and less than 10) | 
8 | CCNC(=O)c1ccc(N2CCC[C@H](COc3cccc4c3C(N)=NS(=O)(=O)N4)C2)nc1 [Compound 501] | C (A “C” value indicates an enhancement ratio greater than 1 and less than 10) | A (An “A” value indicates an enhancement ratio of greater than 20) | A (An “A” value indicates an enhancement ratio of greater than 20) | C (A “C” value indicates an enhancement ratio greater than 1 and less than 10) | C (A “C” value indicates an enhancement ratio greater than 1 and less than 10) | C (A “C” value indicates an enhancement ratio greater than 1 and less than 10) | C (A “C” value indicates an enhancement ratio greater than 1 and less than 10)
9 | CCCNC(=O)c1ccc(N2CCC[C@H](COc3cccc4c3C(N)=NS(=O)(=O)N4)C2)nc1 [Compound 502] | C (A “C” value indicates an enhancement ratio greater than 1 and less than 10) | A (An “A” value indicates an enhancement ratio of greater than 20) | A (An “A” value indicates an enhancement ratio of greater than 20) | C (A “C” value indicates an enhancement ratio greater than 1 and less than 10) | C (A “C” value indicates an enhancement ratio greater than 1 and less than 10) | C (A “C” value indicates an enhancement ratio greater than 1 and less than 10) | C (A “C” value indicates an enhancement ratio greater than 1 and less than 10)
